From patent publication US6160175A, “Naphthyl acetamides as sPLA2 inhibitors” (Eli Lilly and Company, priority 1996, dated 2000) come the findings set out here.

In this assay the target is T1, recombinant human secreted phospholipase A2 (Homo sapiens, UniProt P14555).
T1 sequence (P14555 21-144): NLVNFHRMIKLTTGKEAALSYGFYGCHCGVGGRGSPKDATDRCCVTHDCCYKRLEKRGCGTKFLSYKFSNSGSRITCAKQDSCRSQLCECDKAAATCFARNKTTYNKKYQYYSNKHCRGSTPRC
Briefly: Chromogenic assay; Human Secreted Phospholipase A2 Inhibition Tests. Particulars: racemic diheptanoyl thio-PC substrate 1 mM, Triton X-100 0.29 mM, pH 7.5, 40° C., 30 minutes, 405 nm; read-out: Inhibition of human secreted PLA2, IC50 ± mean deviation (3-4 tests). It is filed as biochemical. The source says: The following chromogenic assay procedure was used to identify and evaluate inhibitors of recombinant human secreted phospholipase A2. The assay described herein has been adapted for high volume screening using 96 well microtiter plates. A general description of this assay method is found in the article, "Analysis of Human Synovial Fluid Phospholipase A2 on Short Chain Phosphatidylcholine-Mixed Micelles: Development of a Spectrophotometric Assay Suitable for a Microtiterplate Reader", by Laure J. Reynolds, Lori L. Hughes, and Edward A. Dennis, Analytical Biochemistry, 204, pp. 190-197, 1992 (the disclosure of which is incorporated herein by reference):
A measured volume of racemic dipheptanoyl thio PC supplied in chloroform at a concentration of 100 mg/ml is taken to dryness and redissolved in 10 millimolar TRITON X-100™ nonionic detergent aqueous solution. Reaction Buffer is added to the solution, then DTNB to give the Reaction Mixture.
The reaction mixture thus obtained contains 1 mM diheptanoly thio-PC substrate, 0.29 mm Triton X-100™ detergent, and 0.12 mm DTMB in a buffered aqueous solution at pH 7.5.
1. Add 0.2 ml reaction mixture to all wells;
2. Add 10 ul test compound (or solvent blank) to appropriate wells, mix 20 seconds;
3. Add 50 nanograms of sPLA2 (10 microliters) to appropriate wells;
4. Incubate plate at 40° C. for 30 minutes;
5. Read absorbance of wells at 405 nanometers with an automatic plate reader.
All compounds were tested in triplicate. Typically, compounds were tested at a final concentration of 5 ug/ml. […] Lack of color development at 405 nanometers evidenced inhibition. Compounds initially found to be active were reassayed to confirm their activity and, if sufficiently active, IC50 values were determined. […] In all cases, % inhibition measured at 405 nanometers generated by enzyme reactions containing inhibitors relative to the uninhibited control reactions was determined. […] IC50 were determined by plotting log concentration versus inhibition values in the range from 10-90% inhibition.

The IC50 is the concentration that inhibits the measured activity by half. As for `NC(=O)Cc1ccc(Cc2ccccc2)c2ccccc12` [Compound A, 4-Benzyl-1-naphphylacetamide], the IC50 turned out to be 0.87 µM.

As to `O=C(O)Cc1ccc(Oc2ccccc2)c2ccccc12` [Compound B, 4-Phenoxynaphth-1-yl acetic acid], the IC50 came to 51 µM.

Turning to `NC(=O)Cc1ccc(Oc2ccccc2)c2ccccc12` [Compound C, 4-Phenoxynaphth-1-yl acetamide], the IC50 is 4.4 µM.
